What was measured:
Test in all cases: biochemical
Assay type in all cases: binding
[1] = target: 468 kinases (Homo sapiens, UniProt Q08881); details: ITK; read-out: % Inhibition @ 100 nM
[2] = target: 468 kinases (Homo sapiens, UniProt P53355); details: DAPK1; read-out: % Inhibition @ 100 nM
[3] = target: 468 kinases (Homo sapiens, UniProt Q13237); details: PRKG2; read-out: % Inhibition @ 100 nM
[4] = target: 468 kinases (Homo sapiens, UniProt Q9Y5S2); details: MRCKB; read-out: % Inhibition @ 100 nM
[5] = target: 468 kinases (Homo sapiens, UniProt P42338); details: PIK3CB; read-out: % Inhibition @ 100 nM
[6] = target: 468 kinases (Homo sapiens, UniProt P08581, Y1235D); details: MET(Y1235D); read-out: % Inhibition @ 100 nM
[7] = target: 468 kinases (Homo sapiens, UniProt Q9UQM7); details: CAMK2A; read-out: % Inhibition @ 100 nM
[8] = target: 468 kinases (Homo sapiens, UniProt P36896); details: ACVR1B; read-out: % Inhibition @ 100 nM
[9] = target: 468 kinases (Homo sapiens, UniProt Q86UX6); details: YANK3; read-out: % Inhibition @ 100 nM
[10] = target: 468 kinases (Homo sapiens, UniProt Q7L7X3); details: TAOK1; read-out: % Inhibition @ 100 nM
[11] = target: 468 kinases (Homo sapiens, UniProt P09769); details: FGR; read-out: % Inhibition @ 100 nM
[12] = target: 468 kinases (Homo sapiens, UniProt Q8TD08); details: ERK8; read-out: % Inhibition @ 100 nM
[13] = target: 468 kinases (Homo sapiens, UniProt P08581, M1250T); details: MET(M1250T); read-out: % Inhibition @ 100 nM
[14] = target: 468 kinases (Homo sapiens, UniProt Q9NRM7); details: LATS2; read-out: % Inhibition @ 100 nM
[15] = target: 468 kinases (Homo sapiens, UniProt Q13555); details: CAMK2G; read-out: % Inhibition @ 100 nM
[16] = target: 468 kinases (Homo sapiens, UniProt Q9P289); details: MST4; read-out: % Inhibition @ 100 nM
[17] = target: 468 kinases (Homo sapiens, UniProt P42336, E545K); details: PIK3CA(E545K); read-out: % Inhibition @ 100 nM
[18] = target: 468 kinases (Homo sapiens, UniProt Q9NYY3); details: PLK2; read-out: % Inhibition @ 100 nM
[19] = target: 468 kinases (Homo sapiens, UniProt Q12866); details: MERTK; read-out: % Inhibition @ 100 nM
[20] = target: 468 kinases (Homo sapiens, UniProt P49674); details: CSNK1E; read-out: % Inhibition @ 100 nM
[21] = target: 468 kinases (Homo sapiens, UniProt P11362); details: FGFR1; read-out: % Inhibition @ 100 nM
[22] = target: 468 kinases (Homo sapiens, UniProt Q9Y6E0); details: MST3; read-out: % Inhibition @ 100 nM
[23] = target: 468 kinases (Homo sapiens, UniProt O43293); details: DAPK3; read-out: % Inhibition @ 100 nM
[24] = target: 468 kinases (Homo sapiens, UniProt P29322); details: EPHA8; read-out: % Inhibition @ 100 nM
[25] = target: 468 kinases (Homo sapiens, UniProt Q9P0L2); details: MARK1; read-out: % Inhibition @ 100 nM
[26] = target: 468 kinases (Homo sapiens, UniProt Q9Y2H1); details: NDR2; read-out: % Inhibition @ 100 nM
[27] = target: 468 kinases (Homo sapiens, UniProt P10721, T670I/V559D); details: KIT(V559D,T6701); read-out: % Inhibition @ 100 nM
[28] = target: 468 kinases (Homo sapiens, UniProt Q07002); details: PCTK3; read-out: % Inhibition @ 100 nM
[29] = target: 468 kinases (Homo sapiens, UniProt Q16659); details: ERK3; read-out: % Inhibition @ 100 nM
[30] = target: 468 kinases (Homo sapiens, UniProt P52333); details: JAK3 (JH1domain-catalytic); read-out: % Inhibition @ 100 nM
[31] = target: 468 kinases (Homo sapiens, UniProt Q96L34); details: MARK4; read-out: % Inhibition @ 100 nM
[32] = target: 468 kinases (Homo sapiens, UniProt P00533, T790M); details: EGFR(T790M); read-out: % Inhibition @ 100 nM
[33] = target: 468 kinases (Homo sapiens, UniProt P06239); details: LCK; read-out: % Inhibition @ 100 nM
468 kinases (Homo sapiens, UniProt P06239), sequence (P06239 2-509 limits assumed): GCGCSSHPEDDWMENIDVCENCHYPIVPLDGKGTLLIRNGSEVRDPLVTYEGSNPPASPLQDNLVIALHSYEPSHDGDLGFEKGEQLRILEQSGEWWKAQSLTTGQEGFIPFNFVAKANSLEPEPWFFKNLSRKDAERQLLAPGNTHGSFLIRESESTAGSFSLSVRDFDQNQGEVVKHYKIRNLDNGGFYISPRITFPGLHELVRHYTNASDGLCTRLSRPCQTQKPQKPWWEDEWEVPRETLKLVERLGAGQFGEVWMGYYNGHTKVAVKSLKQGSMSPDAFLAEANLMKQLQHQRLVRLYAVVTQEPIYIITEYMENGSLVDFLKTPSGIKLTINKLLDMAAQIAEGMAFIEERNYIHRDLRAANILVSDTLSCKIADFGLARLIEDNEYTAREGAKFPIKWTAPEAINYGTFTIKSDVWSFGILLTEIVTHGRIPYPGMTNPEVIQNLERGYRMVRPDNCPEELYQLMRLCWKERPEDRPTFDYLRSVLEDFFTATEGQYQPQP

468 kinases (Homo sapiens, UniProt P11362), sequence (P11362 22-822 limits assumed): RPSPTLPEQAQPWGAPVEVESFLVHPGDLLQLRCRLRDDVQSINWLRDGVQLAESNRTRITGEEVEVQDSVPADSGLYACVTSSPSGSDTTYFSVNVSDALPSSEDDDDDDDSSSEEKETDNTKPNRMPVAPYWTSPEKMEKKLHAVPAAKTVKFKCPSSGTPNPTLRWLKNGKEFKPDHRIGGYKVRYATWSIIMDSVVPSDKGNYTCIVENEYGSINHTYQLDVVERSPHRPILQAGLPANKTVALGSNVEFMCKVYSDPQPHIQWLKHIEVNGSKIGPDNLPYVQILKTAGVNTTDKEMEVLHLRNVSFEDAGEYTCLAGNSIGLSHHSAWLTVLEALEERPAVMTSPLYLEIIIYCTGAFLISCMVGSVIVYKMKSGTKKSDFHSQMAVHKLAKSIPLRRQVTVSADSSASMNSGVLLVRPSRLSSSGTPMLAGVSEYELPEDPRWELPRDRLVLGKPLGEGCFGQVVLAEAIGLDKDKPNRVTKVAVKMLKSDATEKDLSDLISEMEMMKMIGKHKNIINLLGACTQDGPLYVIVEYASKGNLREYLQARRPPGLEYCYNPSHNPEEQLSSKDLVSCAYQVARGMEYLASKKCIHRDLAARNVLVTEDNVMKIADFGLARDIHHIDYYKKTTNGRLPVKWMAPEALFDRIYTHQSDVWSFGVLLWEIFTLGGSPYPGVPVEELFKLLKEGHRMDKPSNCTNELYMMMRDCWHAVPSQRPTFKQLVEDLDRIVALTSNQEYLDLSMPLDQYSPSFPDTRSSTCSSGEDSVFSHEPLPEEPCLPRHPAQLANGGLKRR
468 kinases (Homo sapiens, UniProt Q13237), sequence (Q13237 2-762 limits assumed): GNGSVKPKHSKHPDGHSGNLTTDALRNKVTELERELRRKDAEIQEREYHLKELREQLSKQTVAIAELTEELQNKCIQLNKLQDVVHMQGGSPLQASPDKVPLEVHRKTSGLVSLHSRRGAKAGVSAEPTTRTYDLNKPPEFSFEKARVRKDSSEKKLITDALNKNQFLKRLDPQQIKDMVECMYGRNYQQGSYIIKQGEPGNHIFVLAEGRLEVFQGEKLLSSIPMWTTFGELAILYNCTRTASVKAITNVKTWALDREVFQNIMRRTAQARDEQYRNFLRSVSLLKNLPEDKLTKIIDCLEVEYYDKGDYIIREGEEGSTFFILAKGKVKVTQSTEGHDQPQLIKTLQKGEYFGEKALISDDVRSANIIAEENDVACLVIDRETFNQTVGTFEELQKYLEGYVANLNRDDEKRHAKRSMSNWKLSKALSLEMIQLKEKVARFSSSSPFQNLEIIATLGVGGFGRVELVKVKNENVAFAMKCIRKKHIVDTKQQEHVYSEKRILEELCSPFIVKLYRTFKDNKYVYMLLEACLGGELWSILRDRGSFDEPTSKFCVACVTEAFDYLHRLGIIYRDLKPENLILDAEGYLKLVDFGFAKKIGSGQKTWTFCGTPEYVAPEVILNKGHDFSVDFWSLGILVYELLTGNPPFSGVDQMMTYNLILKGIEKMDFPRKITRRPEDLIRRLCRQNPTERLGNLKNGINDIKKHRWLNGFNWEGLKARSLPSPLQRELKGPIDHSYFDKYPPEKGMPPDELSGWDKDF
468 kinases (Homo sapiens, UniProt P08581, M1250T), sequence (P08581 25-1390 M1250T limits assumed): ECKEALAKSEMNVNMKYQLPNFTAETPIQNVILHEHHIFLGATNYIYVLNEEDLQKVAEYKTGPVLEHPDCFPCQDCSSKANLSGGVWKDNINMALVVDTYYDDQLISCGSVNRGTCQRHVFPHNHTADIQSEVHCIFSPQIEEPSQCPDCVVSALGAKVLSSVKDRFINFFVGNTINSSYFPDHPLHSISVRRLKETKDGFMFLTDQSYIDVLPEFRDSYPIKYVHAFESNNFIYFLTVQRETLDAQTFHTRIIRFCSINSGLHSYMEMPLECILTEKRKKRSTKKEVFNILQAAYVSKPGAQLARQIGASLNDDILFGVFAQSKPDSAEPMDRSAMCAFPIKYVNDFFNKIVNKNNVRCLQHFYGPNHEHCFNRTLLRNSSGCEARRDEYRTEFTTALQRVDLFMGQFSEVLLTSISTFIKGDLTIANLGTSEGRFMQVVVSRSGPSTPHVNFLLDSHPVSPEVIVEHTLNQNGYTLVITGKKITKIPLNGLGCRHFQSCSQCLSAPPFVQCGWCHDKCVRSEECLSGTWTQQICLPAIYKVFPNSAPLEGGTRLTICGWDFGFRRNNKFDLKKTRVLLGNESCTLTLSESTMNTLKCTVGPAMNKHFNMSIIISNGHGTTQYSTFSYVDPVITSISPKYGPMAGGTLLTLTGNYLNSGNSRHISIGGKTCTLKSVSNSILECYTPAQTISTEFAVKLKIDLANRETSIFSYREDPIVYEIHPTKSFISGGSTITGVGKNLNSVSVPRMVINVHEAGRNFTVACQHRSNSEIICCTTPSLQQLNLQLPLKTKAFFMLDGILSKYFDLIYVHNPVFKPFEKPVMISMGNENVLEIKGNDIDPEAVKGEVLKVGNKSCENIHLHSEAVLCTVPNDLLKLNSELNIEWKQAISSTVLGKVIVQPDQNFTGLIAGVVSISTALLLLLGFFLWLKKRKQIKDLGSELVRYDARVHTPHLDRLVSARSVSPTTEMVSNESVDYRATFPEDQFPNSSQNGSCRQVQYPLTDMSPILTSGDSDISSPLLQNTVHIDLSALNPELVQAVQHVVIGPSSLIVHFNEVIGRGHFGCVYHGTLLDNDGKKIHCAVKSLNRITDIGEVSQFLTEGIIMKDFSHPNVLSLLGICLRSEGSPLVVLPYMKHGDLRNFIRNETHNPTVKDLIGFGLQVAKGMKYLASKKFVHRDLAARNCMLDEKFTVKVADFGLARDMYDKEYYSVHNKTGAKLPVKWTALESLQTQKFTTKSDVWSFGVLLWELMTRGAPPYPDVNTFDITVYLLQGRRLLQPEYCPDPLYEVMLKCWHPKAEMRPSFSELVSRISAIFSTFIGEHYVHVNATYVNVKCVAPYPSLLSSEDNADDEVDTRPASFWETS
468 kinases (Homo sapiens, UniProt P36896), sequence (P36896 24-505 limits assumed): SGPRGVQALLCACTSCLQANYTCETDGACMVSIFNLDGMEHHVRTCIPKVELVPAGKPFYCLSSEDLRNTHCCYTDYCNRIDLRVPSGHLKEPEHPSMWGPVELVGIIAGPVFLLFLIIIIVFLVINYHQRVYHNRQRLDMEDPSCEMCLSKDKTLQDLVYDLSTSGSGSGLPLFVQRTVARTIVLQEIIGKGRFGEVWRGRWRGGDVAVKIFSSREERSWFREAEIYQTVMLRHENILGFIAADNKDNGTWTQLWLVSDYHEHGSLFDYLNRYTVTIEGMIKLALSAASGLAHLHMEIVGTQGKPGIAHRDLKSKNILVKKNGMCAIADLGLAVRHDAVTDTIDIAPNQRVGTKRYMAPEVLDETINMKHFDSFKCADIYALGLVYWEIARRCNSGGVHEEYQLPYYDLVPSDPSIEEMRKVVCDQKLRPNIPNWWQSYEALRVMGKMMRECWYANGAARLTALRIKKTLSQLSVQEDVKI
468 kinases (Homo sapiens, UniProt P29322), sequence (P29322 28-1005 limits assumed): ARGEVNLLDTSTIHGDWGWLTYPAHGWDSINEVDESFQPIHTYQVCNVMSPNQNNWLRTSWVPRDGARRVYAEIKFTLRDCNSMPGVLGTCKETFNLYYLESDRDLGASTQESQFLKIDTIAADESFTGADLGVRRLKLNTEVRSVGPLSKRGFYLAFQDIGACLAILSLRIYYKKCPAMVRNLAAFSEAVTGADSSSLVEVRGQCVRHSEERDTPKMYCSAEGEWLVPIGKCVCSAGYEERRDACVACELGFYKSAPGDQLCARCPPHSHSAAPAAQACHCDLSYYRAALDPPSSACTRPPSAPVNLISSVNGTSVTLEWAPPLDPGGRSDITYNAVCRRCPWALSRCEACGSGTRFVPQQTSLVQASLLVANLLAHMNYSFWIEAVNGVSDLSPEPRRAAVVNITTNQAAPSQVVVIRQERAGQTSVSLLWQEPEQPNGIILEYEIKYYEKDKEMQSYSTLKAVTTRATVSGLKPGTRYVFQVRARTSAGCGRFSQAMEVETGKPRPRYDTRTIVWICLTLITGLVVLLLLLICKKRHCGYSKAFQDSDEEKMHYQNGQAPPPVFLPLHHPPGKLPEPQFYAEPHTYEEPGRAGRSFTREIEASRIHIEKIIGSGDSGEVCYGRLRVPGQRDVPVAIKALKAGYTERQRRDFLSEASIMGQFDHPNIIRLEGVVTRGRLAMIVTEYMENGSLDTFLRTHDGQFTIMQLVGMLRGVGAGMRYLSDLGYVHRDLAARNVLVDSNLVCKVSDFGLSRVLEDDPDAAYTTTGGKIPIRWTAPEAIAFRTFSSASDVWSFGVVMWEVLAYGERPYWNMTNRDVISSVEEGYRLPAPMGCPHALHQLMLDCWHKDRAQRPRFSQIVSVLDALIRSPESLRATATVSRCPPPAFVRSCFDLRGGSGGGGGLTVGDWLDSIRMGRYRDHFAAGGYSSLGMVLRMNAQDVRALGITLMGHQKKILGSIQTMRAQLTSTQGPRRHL

| Structure (SMILES) | inhibition at 0.1 µM [1] [%] | inhibition at 0.1 µM [2] [%] | inhibition at 0.1 µM [3] [%] | inhibition at 0.1 µM [4] [%] | inhibition at 0.1 µM [5] [%] | inhibition at 0.1 µM [6] [%] | inhibition at 0.1 µM [7] [%] | inhibition at 0.1 µM [8] [%] | inhibition at 0.1 µM [9] [%] | inhibition at 0.1 µM [10] [%] | inhibition at 0.1 µM [11] [%] | inhibition at 0.1 µM [12] [%] | inhibition at 0.1 µM [13] [%] | inhibition at 0.1 µM [14] [%] | inhibition at 0.1 µM [15] [%] | inhibition at 0.1 µM [16] [%] | inhibition at 0.1 µM [17] [%] | inhibition at 0.1 µM [18] [%] | inhibition at 0.1 µM [19] [%] | inhibition at 0.1 µM [20] [%] | further results |
| --- | --- | --- | --- | --- | --- | --- | --- | --- | --- | --- | --- | --- | --- | --- | --- | --- | --- | --- | --- | --- | --- |
| CCN(CC)CCNC(=O)c1c(C)[nH]c(/C=C2\C(=O)Nc3ccc(CCO)cc32)c1C [Compound No. 10, (Z)—N-(2-(Diethylamino)ethyl)-5-((5-(2-hydroxyethyl)-2-oxoindolin-3-ylidene)methyl)-2,4-dimethyl-1H-pyrrole-3-carboxamide] | 12 | 4 | 0 | 0 | 0 | 4 | 6 | 0 | 22 | 22 | 16 | 15 | 0 | 4 | 8 | 0 | 56 | 0 | 71 | 37 | inhibition at 0.1 µM [21]: 44%; inhibition at 0.1 µM [22]: 20%; inhibition at 0.1 µM [23]: 5%; inhibition at 0.1 µM [24]: 0%; inhibition at 0.1 µM [25]: 39%; inhibition at 0.1 µM [26]: 0%; inhibition at 0.1 µM [27]: 72%; inhibition at 0.1 µM [28]: 12%; inhibition at 0.1 µM [29]: 0%; inhibition at 0.1 µM [30]: 17%; inhibition at 0.1 µM [31]: 41%; inhibition at 0.1 µM [32]: 0%; inhibition at 0.1 µM [33]: 37% |
| CCN(CC)CCNC(=O)c1c(C)[nH]c(/C=C2\C(=O)Nc3ccc(CCC(N)=O)cc32)c1C [Compound No. 16, (Z)-5-((5-(3-Amino-3-oxopropyl)-2-oxoindolin-3-ylidene)methyl)-N-(2-(diethylamino)ethyl)-2,4-dimethyl-1H-pyrrole-3-carboxamide] | 12 | 20 | 36 | 15 | 3 | 0 | 45 | 0 | 0 | 53 | 32 | 25 | 6 | 13 | 18 | 37 | 41 | 19 | 68 | 4 | inhibition at 0.1 µM [21]: 14%; inhibition at 0.1 µM [22]: 19%; inhibition at 0.1 µM [23]: 21%; inhibition at 0.1 µM [24]: 0%; inhibition at 0.1 µM [25]: 13%; inhibition at 0.1 µM [26]: 11%; inhibition at 0.1 µM [27]: 23%; inhibition at 0.1 µM [28]: 9%; inhibition at 0.1 µM [29]: 9%; inhibition at 0.1 µM [30]: 48%; inhibition at 0.1 µM [31]: 12%; inhibition at 0.1 µM [32]: 30%; inhibition at 0.1 µM [33]: 16% |
